1 substance from patent US8686224B2, “Plant defense signal peptides” (priority 2005, dated 2014) can be followed below.

Several values for one entry are separate records, joined by “and”; a condition that tells them apart may be missing. Identical values can stand only once. Entries after “also recorded” stand apart in the source; their conditions may differ.

For test [1], the system named is AtPEPR1 and AtPEPR2 transcripts. Put plainly: Expression analysis of AtPEPR1 and AtPEPR2 (Northern hybridization, quantitative RT-PCR). In kind it is in vivo, Arabidopsis thaliana. The note with it: within 30 min. Here is the method:
Expression analysis of AtPEPR1 and AtPEPR2. […] In order to elucidate the role of AtPEPR2 in AtPeps signal transduction, the gene expression patterns were analyzed in comparison with AtPEPR1.

Another test deals with T1, AtPEPR2 (Arabidopsis thaliana, UniProt Q9FZ59).
T1 construct: the AtPEPR2 coding region was fused to the CaMV 35S promoter and introduced into tobacco suspension-cultured cells; expressed in transfected cells; host or cells: tobacco suspension-cultured cells, transformed by Agrobacterium, kanamycin-selected
T1 sequence (Q9FZ59 27-1088): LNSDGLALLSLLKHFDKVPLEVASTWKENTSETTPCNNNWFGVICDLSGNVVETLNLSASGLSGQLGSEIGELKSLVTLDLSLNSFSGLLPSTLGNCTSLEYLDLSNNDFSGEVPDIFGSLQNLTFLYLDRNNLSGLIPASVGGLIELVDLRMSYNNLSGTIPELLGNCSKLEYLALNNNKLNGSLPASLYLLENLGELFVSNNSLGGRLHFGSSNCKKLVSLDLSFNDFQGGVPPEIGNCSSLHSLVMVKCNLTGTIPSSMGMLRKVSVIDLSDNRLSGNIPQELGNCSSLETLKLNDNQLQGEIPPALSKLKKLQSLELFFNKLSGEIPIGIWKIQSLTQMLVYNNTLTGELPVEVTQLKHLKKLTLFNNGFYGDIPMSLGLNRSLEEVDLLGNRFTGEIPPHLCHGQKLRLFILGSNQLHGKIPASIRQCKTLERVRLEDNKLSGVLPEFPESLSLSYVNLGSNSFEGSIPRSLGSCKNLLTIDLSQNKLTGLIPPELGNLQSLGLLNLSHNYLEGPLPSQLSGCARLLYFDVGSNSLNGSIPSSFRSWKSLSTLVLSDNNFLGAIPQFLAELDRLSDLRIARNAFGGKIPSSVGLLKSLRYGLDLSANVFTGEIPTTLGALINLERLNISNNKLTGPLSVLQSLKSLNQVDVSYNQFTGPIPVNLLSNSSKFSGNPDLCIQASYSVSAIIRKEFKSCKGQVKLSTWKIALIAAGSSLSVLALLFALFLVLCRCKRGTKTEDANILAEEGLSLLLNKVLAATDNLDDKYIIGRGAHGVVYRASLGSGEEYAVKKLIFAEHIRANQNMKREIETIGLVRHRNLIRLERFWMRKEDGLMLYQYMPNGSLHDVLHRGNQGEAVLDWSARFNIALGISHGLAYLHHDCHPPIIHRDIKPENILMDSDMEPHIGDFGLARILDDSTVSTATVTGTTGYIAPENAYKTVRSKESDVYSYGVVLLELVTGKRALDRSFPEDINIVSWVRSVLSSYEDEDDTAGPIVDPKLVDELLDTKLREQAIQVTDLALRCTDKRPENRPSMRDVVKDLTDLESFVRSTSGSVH
Put plainly: Medium alkalinization of transgenic tobacco cells expressing AtPEPR2. It counts as cell-based. The protocol: (§1) To clarify whether AtPEPR2 binds to AtPep1, the AtPEPR2 coding region was fused to the CaMV 35S promoter and introduced into tobacco suspension-cultured cells by Agrobacterium. Tobacco cells expressing AtPEPR1 and GUS genes were also created as positive and negative controls, respectively. […] These transgenic lines were analyzed for alkalinizing activity as previously described (Pearce et al., Proc. Natl. Acad. Sci. USA 98, 12843-12847, 2001).
(§2) The response to all AtPep peptides in transgenic tobacco cells expressing either AtPEPR1 or AtPEPR2 was analyzed by the medium alkalinization assay.

Another test addresses T2, AtPEPR1 (Arabidopsis thaliana, UniProt Q9SSL9).
T2 construct: Tobacco cells were transformed with a CaMV-35S-AtPEPR1 gene; expressed in transfected cells; host or cells: tobacco suspension-cultured cells (Agrobacterium-mediated, CaMV 35S promoter)
T2 sequence (Q9SSL9 29-1123): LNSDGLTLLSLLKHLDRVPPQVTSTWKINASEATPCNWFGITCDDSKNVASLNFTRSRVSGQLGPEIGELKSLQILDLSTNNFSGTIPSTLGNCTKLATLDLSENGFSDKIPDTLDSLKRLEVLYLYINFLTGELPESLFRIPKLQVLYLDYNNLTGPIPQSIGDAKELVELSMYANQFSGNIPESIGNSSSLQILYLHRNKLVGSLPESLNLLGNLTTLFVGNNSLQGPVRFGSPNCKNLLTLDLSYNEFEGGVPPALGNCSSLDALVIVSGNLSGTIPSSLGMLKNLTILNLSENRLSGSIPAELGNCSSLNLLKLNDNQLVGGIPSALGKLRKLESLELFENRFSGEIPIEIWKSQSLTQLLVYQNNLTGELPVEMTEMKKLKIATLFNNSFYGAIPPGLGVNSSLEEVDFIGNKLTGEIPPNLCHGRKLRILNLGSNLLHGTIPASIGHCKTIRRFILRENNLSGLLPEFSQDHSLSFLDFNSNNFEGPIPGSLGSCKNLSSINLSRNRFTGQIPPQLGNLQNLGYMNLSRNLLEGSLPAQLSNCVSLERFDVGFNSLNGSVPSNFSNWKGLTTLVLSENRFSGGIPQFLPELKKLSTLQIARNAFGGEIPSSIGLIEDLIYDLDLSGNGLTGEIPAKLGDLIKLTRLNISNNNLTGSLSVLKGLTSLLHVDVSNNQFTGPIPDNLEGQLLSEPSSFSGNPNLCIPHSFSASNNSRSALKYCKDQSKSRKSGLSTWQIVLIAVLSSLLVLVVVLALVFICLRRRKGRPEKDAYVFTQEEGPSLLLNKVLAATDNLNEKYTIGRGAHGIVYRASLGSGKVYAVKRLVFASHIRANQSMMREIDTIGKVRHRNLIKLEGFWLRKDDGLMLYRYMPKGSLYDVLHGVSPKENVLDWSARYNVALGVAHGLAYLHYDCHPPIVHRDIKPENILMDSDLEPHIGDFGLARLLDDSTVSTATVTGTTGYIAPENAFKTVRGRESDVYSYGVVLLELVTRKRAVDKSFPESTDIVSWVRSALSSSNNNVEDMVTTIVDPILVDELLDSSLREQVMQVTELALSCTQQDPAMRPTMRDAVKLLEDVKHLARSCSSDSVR
The test is described as follows: Medium alkalinization of transgenic tobacco cells expressing AtPEPR1. In kind it is cell-based.
From the text: Tobacco cells were transformed with a CaMV-35S-AtPEPR1 gene to determine whether the foreign receptor protein was targeted to the cell surface, where, in response to AtPep1, it would activate intracellular signaling to effect the alkalinization of the medium of the transgenic tobacco cells. Expression of the AtPEPR1 gene was confirmed by RT-PCR analysis of RNA from three independently transformed tobacco cell lines. […] AtPep2-7 was also supplied to the transgenic tobacco cells expressing AtPEPR1.
as §1, §2

The target of test [2] is T3, AtPep1 receptor (At1g73080, AtPEPR1) (Arabidopsis thaliana, UniProt Q9SSL9).
T3 sequence (Q9SSL9 29-1123): T2 sequence (Q9SSL9 29-1123)
The test is described as follows: Binding assay of 125I1-Tyr-AtPep1 with Arabidopsis suspension cultured cells.
Description: Binding assays. […] The filtered cells were washed three times with 5 mL of cold MS medium containing 3% sucrose, suspended in 1 mL MS medium containing 3% sucrose in a glass test tube, and analyzed for total radioactivity in a gamma-ray counter (Isodata 2020; Isodata Inc., Palatine, Ill.).

The mark [3] stands for this setting: AtPEPR2 expressing tobacco cells.
The mark [4] stands for this setting: AtPEPR1 expressing tobacco cells.

In the case of H-ATKVKAKQRGKEKVSSGRPGQHN-OH [AtPep1], the “induction of AtPEPR1 and AtPEPR2 transcripts” value in test [1] was “strong inducer”. For the same substance, the EC50 on AtPEPR2 and on AtPEPR1 was around 0.25 nM in each case. In addition, the “alkalinization of the medium” value is given as “caused alkalinization of the media” at AtPEPR2 (setting [3]) and “strong, reproducible alkalinization; also recorded: caused alkalinization of the media” on AtPEPR1 (setting [4]). Besides, the maximal change at AtPEPR2 (setting [3]) is 1-1.2 pH units and 1.2 pH units; on AtPEPR1 (setting [4]), 1.2 pH units. Besides, the dissociation constant (Kd) (commonly the concentration at which binding is half-saturated) in test [2] was found to be 0.25 nM.
